From patent US6706293B1, “Pharmaceutical composition capable of regulating the expression of adhesion molecules” (Especialidades Farmaceuticas Centrum, S.A., priority 1999, dated 2004)

Assays:
[1] = tested on: Female WISTAR rats; experiment: Anti-inflammatory activity in acute and chronic phase in rats (adjuvant + carrageenin foot volume, method of Mizushima); format: in vivo, rat; conditions: oral, Phenylbutazone 80 mg/Kg, extract 1.25 g per kg
Protocol: A study of the anti-inflammatory activity has been made in acute and chronic phase in rats. The method used was as described by Mizushima. The reference medicament (Phenylbutizene, dose 80 mg/Kg) and the products of the study (dose equivalent to 1.25 g extract per kg weight of animal) were dissolved in a solution of 1% of CMC (carboxymethylcellulose) in distillated water (w/v) and Tween 80: distillated water (0.2:3.3-v/v), in order to be administrated orally. Six days after inoculation, by intradermal route of 0.1 mL of the complete adjuvant Freund (DIFCO) in the basal part of the tail, was injected 0.1 mL of a suspension of carrageenin type IV 2% (w/v) at the aponeurosis of the left back foot. The volume of the foot of the animal was measured, using a water pletismometer, immediately before the carrageenin injection (basal volume) and afterwards at 3, 5, and 7 hours (acute phase of the inflammation) and at 24, 48, 72, and 96 hours (chronic phase of inflammation). The products of the study, the phenylbutazone, and the carrier were administrated, orally and in portions of 6 animals, 1 hour before the carrageenin injection and at 24, 48 and 72 hours. The percentage of inhibition of the inflammation was calculated by comparing the increase of the volume of the animal foot in respect of its basal volume, for each group of animals and in relation to the control group. The control group was given the carrier of phenylbutazone and the products of the study. The statistical significance was evaluated via the T Student test.

[2] = tested on: CD11a; experiment: In vitro expression of adhesion molecules in peripheral blood mononuclear cells (flow cytometry); format: cell-based, human; conditions: PBMNc of 10 healthy individuals, 48 hours culture; PHA 10 μg/ml, Anapsos 150 μg/ml; CONTROL 17%
Protocol: (§1) Peripheral blood was extracted from 10 healthy individuals and the mononuclear cells was separated via Fycoll-Hypaque density gradient centrifugation. The cells was cultivated in plane bottom microtiter plates, at a titer of 1 million/ml for 48 hours in a CO2 incubator, with phytohaemagglutinin (PHA) at concentrations of 0, 0.5, 2, 5 and 10 μg/ml and/or with Anapsos at concentrations between 0 to 5000 μg/ml. Finalized the culturing, the lymphocytes was analyzed by flow cytometry. The expression of determined adhesion molecules (CD11a, CD11b, CD18, CD54) was studied in relation to the different conditions of stimuli. En parallel to the culture as described above, a culture for 5 days was made under the same conditions of stimuli as above. Tritium thymidine was added 16 hours before finalizing the culture. Terminated the culture, the cells was washed with the Harvester and flashing liquid was incorporated into the cells. The cellular incorporation of tritium thymidine was measured via a β counter. During the culturing, the cells were photographed via an inverted microscope.

[3] = tested on: CD11b; experiment: as above; format: cell-based, human; conditions: PBMNc of 10 healthy individuals, 48 hours culture; PHA 10 μg/ml, Anapsos 150 μg/ml; CONTROL 20%
Protocol: as §1

[4] = tested on: CD18; experiment: as above; format: cell-based, human; conditions: PBMNc of 10 healthy individuals, 48 hours culture; PHA 10 μg/ml, Anapsos 150 μg/ml; CONTROL 20%
Protocol: as §1

[5] = tested on: CD54; experiment: as above; format: cell-based, human; conditions: PBMNc of 10 healthy individuals, 48 hours culture; PHA 10 μg/ml, Anapsos 150 μg/ml; CONTROL 2%
Protocol: as §1

| Molecule | % INHIBITION OF THE INFLAMMATION 3 h ([1]; 3 h after carrageenin (acute phase)) [%] | % INHIBITION OF THE INFLAMMATION 5 h ([1]; 5 h after carrageenin (acute phase)) [%] | % INHIBITION OF THE INFLAMMATION 7 h ([1]; 7 h after carrageenin (acute phase)) [%] | % INHIBITION OF THE INFLAMMATION 24 h ([1]; 24 h after carrageenin (chronic phase)) [%] | % INHIBITION OF THE INFLAMMATION 48 h ([1]; 48 h after carrageenin (chronic phase)) [%] | % INHIBITION OF THE INFLAMMATION 72 h ([1]; 72 h after carrageenin (chronic phase)) [%] | % INHIBITION OF THE INFLAMMATION 96 h ([1]; 96 h after carrageenin (chronic phase)) [%] | Expression, in vitro, of CD11a [2] [%] | Expression, in vitro, of CD11b [3] [%] | Expression, in vitro, of CD18 [4] [%] | Expression, in vitro, of CD54 [5] [%] |
| --- | --- | --- | --- | --- | --- | --- | --- | --- | --- | --- | --- |
| CCCCC1C(=O)N(c2ccccc2)N(c2ccccc2)C1=O [Phenylbutazone] | 41 | 27 | 21 | 36 | 60 | 56 | 40 | – | – | – | – |
| phytohaemagglutinin [PHA] | – | – | – | – | – | – | – | 22 | 35 | 27 | 9 |
